Laboratory results reported in patent publication US20250177448A1, “NEW USE OF PEG-PHOSPHOLIPID MOLECULES” (ICOAT MEDICAL AB, priority 2022, published 2025).

What was measured:
[1] = tested on: RBCs; assay: Complement mediated lysis of RBCs coated with PEG-phospholipid; format: cell-based, human; details: ABO missmatched donors, vs non-treated controls, 37° C. 20 min
Experimental: In order to investigate if the PEG-phospholipid was able to protect against complement mediated lysis, RBCs were used from 13 different donors who were typed for Rh complex and ABO antigens. RBCs were isolated and preincubated with PEG-phospholipid at varying concentrations, free PEG or PBS as described above. Cells were then washed (and the supernatant stored for analysis) with PBS (800 g×5 min, RT) and incubated with human serum (where the complement system is active) for 20 minutes at 37° C. They were then spun down again (800 g×5 min) and the supernatant was collected for analysis of hemolysis. The RBCs were analyzed for complement fixation (cells were incubated for 10 min with a
FITC-labelled anti-C3c antibody). RBCs were resuspended with PBS (1 mL) for flow cytometry measurements. […] Post analysis processing was carried out in FlowJo (BD). The supernatant was analyzed on a variable wavelength detection plate reader, Synergy HTX, for the absorbance at 540 nm. RBCs, which were lysed via osmotic stress, were run in parallel as positive controls. The background absorbance at 540 nm from PBS containing no cells was subtracted and the difference in absorbance between cells coated with PEG-phospholipid or PBS was then calculated.

[2] = tested on: Rhesus factors D, C, c, E and e on erythrocytes; assay: Agglutination test and Rh phenotyping of coated erythrocytes; format: cell-based; details: 2 mg/ml final, 30 min 37° C.; one O Rh+ and two A Rh+ blood samples; vs untreated control
Experimental: Whole blood samples (one O, Rh+ blood sample and two A Rh+ blood samples) from the blood center were centrifuged in Eppendorf tubes in an Eppendorf 5810R centrifuge at 2500 rpm for 10 min at room temperature (20-25° C.) and the plasma was removed and discarded. The cell fractions were subject to three washing steps in 50 ml falcon tubes. Each washing step involved adding 45 ml phosphate buffered saline (PBS) to 1 ml cell fraction followed by centrifugation at 2500 rpm for 10 minutes at room temperature.
100 μl cell suspension was mixed with 900 μl PBS and 1000 μl PEG-phospholipid (4 mg/ml, polyethylene glycol-phospholipid with PEG of 5 kDa (PEG-phospholipid) in PBS, SUNBRIGHT® PP-050CN, N-(methylpolyoxyethylene oxycarbonyl)-1,2-dipalmitoyl-sn-glycero-3-phosphoethanolamine, sodium salt, NOF Corp., Japan) to coat the erythrocytes with 2 mg/ml PEG-phospholipid (final concentration) or 1000 μl PBS as control. The erythrocyte samples were incubated 30 min at 37° C. in an incubator under rotation in a POL-EKO laboratory incubator. The erythrocyte samples were washed three times with 2 ml PBS and centrifuged at 2500 rpm for 5 min at room temperature in a Heraeus Biofuge Pico centrifuge.
The washed erythrocyte samples were then subject to an agglutination test and Rh phenotyping. […]

[3] = tested on: mannan binding lectin (MBL); assay: Binding of lectin pathway recognition molecule to coated HUVEC after serum exposure, flow cytometry; format: cell-based, human; details: 0.5 mg/ml
Experimental: Post analysis processing was carried out in FlowJo.

[4] = Vascular and tubular distribution and detachment of PEG-phospholipid in vivo (transplanted pig kidney)
Experimental: Full information on donor and recipient pigs is given in Example 5. […] Four recipient pigs were transplanted with biotin-PEG-phospholipid-treated kidneys. Their native kidneys were not removed and remained in the animals throughout the study. The four recipient pigs were euthanized after 12, 24, 48 and 72 h, respectively and biopsies were taken at euthanasia from the biotin-PEG-phospholipid treated kidney and one of the native kidneys. Frozen sections (4 μm thickness) were incubated in Alexa488-streptavidin (GE Healthcare, 1:500) at RT for 10 min. The sections were analyzed by laser-scanning confocal microscopy (LSM510, META, Carl Zeiss, Germany).
Frozen sections (4 μm thickness) of kidneys treated with biotin-PEG-phospholipid and control kidneys were incubated in Alexa488-streptavidin (GE Healthcare, 1:500) at RT for 10 min. The sections were analyzed by laser-scanning confocal microscopy (LSM510, META, Carl Zeiss, Germany).

[5] = pig, in vivo
Experimental: Before surgery for both long term survival studies (SM and CLSM), samples were collected in EDTA tubes from both donors and recipients for analyses of total and differential white blood cell counts and hematology (EPK, Hb, EVF, MCV, MCHC, reticulocytes, thrombocytes). Plasma samples were analyzed for aspartate amino transferase (ASAT), alanine aminotransferase (ALAT), γ-glutamyltransferase (GT), glutamate dehydrogenase (GLDH), and creatinine at the Section of Clinical Chemistry, SLU, Uppsala.
Clinical appearance was assessed several times each day after surgery and a thorough clinical examination conducted once daily. The urinary bladders were examined every day at 9 am and […] to determine if the transplanted kidney produced urine. When possible, free-flow urine was collected and evaluated macroscopically, and density, pH, blood and protein were measured.
Each kidney was examined once after transplantation by ultrasound (Logiq e R6, GE Healthcare, Wauwatosa, U.S.A.) using linear (10 MHZ) and curvilinear (4 MHZ) probes. The length and echogenicity of the kidney as well as the corticomedullary definition were estimated. Furthermore, it was assessed whether the renal pelvic region was dilated. The blood flow in the kidney was evaluated using color Doppler. […]

[6] = tested on: Concanavalin A; details: HUVEC, 0.5 mg/ml, without plasma exposure
Experimental: HUVEC cells were cultured with endothelial cell culture medium with supplements (Promocell) in cell culture flasks (Thermofisher Scientific) and Petri dishes (NUNC). The cells were detached using trypsin EDTA buffer for flowcytometry analysis (BD accuri C6 Serial no. 5173). The cells were rinsed with PBS (10 mL) by centrifugation (120×g, 4° C., 3 min) once and fresh medium was added to the detached cells.
In addition, HUVEC cells were incubated with PEG-phospholipid (0.5 mg/ml), with 10 mM free PEG (5 kDa), or PBS (control) at RT for 45 min followed by washing with PBS, and incubation in human serum with EDTA-plasma as control, both diluted 1:50 in PBS, for 30 min at 37° C. After washing, lectin pathway recognition molecules collectin-11 (CL-11), and mannan binding lectin (MBL), were detected using the FITC-labelled and isotype control antibodies as given in Table 1. […] In addition, FITC-labelled concavalin A (a lectin of broad specificity) was incubated with coated and native HUVECs (without prior exposure to plasma) at a concentration of 50 g/ml.
After incubation with detecting antibodies, the cells were washed with PBS. All samples were analyzed on an Accuri C6 flow cytometer, unstained cells were used to gate the endothelial cell population. 10,000 events were recorded and additional controls in the form of isotype control and unstained control were ran in parallel. […]

[7] = tested on: porcine kidney transplant, ischemia reperfusion injury
Experimental: TAT was measured in both human and porcine plasma using an anti-human thrombin monoclonal antibody was used for capturing and an HRP-coupled anti-human antithrombin (AT) antibody was used for detection (Enzyme Research Laboratories, South Bend, IN, USA).
In addition, TNF, IL-1b, IL-6 and tissue factor (TF) were quantified in plasma by immunoassays using a GyroLab workstation (Gyros, Uppsala, Sweden), and the presence of these compounds, as well as IFNγ in biopsies (below) were verified by PCR.
Paraffin sections of porcine kidney tissue were cut (3-5 μm), deparaffinized in xylene and rehydrated with a graded series of ethanol and distilled water. For IHC staining a heat-induced antigen retrieval was performed by boiling the sections in sodium citric buffer (pH 6), the sections were blocked with 10% normal goat serum (Jackson Immunoresearch) before primary antibody incubation: anti-MAC (abcam ab66768); anti-C3b alpha chain (Bioss bs-4873R); anti-C4d (abcam ab64157), anti-C5aR (Acris AP06509PU-N), anti-HO1 (abcam ab52947), anti-CSE (abnova H00001491-M01), anti-Nitrotyrosine (Merck Millipore AB5411), anti-NOS2 (Santa Cruz sc-651), detection was performed by DAKO Real
Detection System alkaline phosphatase red (Dako). The sections were counterstained with Mayer's hematoxylin (Sigma #51275). Control staining was done with a nonspecific rabbit IgG (Dako #X0936). The slides were visualized using a Zeiss Axio Imager A1 microscope with a ×10 objective (100-fold magnification). Intensity of staining was quantified on multiple randomly selected 800,000 μm^2 sections using the AxioVision 4.8 software (Zeiss). Data are presented as mean densitometric sum red.

[8] = ANSM biopsies, electron microscopy, vs matched individual controls
[9] = ANSM, 1, 60 and 360 min, treated vs non-treated kidneys
[10] = ANSM, 6 h observation, treated vs untreated kidneys
[11] = ANSM, treated vs untreated kidneys

## N-(methylpolyoxyethylene oxycarbonyl)-1,2-dipalmitoyl-sn-glycero-3-phosphoethanolamine [PEG-phospholipid]
[1]
  complement-mediated RBC lysis: reduced complement-mediated RBC lysis in a dose dependent manner
[2]
  agglutination of erythrocytes (Rhesus factor antigens): inhibited agglutination
[3]
  decrease of MBL binding from human serum: 25-30%
[4]; pig kidney, biotin-labeled PEG-phospholipid, 95% confidence interval 8-26
  t½ of PEG-phospholipid calculated from fluorescence images: 14 h
[4]; reliably detected only after 1 hour
  systemic leakage of PEG-phospholipid (autologous kidneys of the recipient): very low
[5]
  toxicity or safety concerns regarding clinical, laboratory, or pathology parameters: No toxicity or safety concerns
[6]
  binding of Concanavalin A: substantially reduced
[7]; [8]
  glomerular NETosis (renal NET deposition): marked decrease
  tubular NETosis (renal NET deposition): marked decrease
[7]; [9]
  HO-1 staining in biopsies: No difference was found
  INOS staining in biopsies: No difference was found
  nitrotyrosine staining in biopsies: No difference was found
[7]; [10]
  C3a in renal vein blood: substantially lower
  FXIla-C1INH in renal vein blood: substantially lower
  TAT in renal vein blood: substantially lower
  sC5b-9 in renal vein blood: substantially lower
[7]; ANSM, RT-PCR, vs controls
  IL-1β mRNA expression in kidney biopsies: lower
  IL-6 mRNA expression in kidney biopsies: lower
  TF mRNA expression in kidney biopsies: lower
  TNF mRNA expression in kidney biopsies: lower
[7]; ANSM, n=6
  deposition of NETs in all locations (glomerular, tubular, vascular): highly significant reduction
[7]; [11]
  binding of C3b in kidney biopsies: significantly lower binding
  binding of C4d in kidney biopsies: tendency of a lower binding
[7]; ANSM, vs controls
  IL-1β plasma concentration in the renal vein: lower
  IL-6 plasma concentration in the renal vein: lower
  TF plasma concentration in the renal vein: lower
  TNF plasma concentration in the renal vein: lower
[7]; pig, in vivo
  time within which fluorescence migrated from the glomeruli to the tubular system: ≤ 6 h
